Source: article PMC4183655, “Discovery and Optimization of Small-Molecule Ligands for the CBP/p300 Bromodomains” (Journal of the American Chemical Society, 2014)
Where two headings read alike, the source gives them in different places.

Columns and labels:
[1] = biological target: CBP BRD; settings: cited from earlier work
[2] = tested on: CBP; settings: cited from earlier work
[3] = tested on: BRD4(1); settings: cited from earlier work
[4] = tested on: GFP-tagged 3 × CBP BRD construct; experiment: Fluorescence recovery after photo-bleaching (FRAP) assay; settings: HeLa cells
[5] = biological target: T1, BRD4(1) (Homo sapiens, UniProt O60885); experiment: DSF (ΔTm) thermal stability assay; type: binding; settings: compound concentration 10 μM; mean ± SEM (number of measurements)
[6] = biological target: T2, CBP (Homo sapiens, UniProt Q92793); experiment: Peptide displacement AlphaScreen; type: binding
[7] = biological target: T2, CBP; experiment: DSF (ΔTm) thermal stability assay; type: binding; settings: compound concentration 10 μM; mean ± SEM (number of measurements)
[8] = biological target: T1, BRD4(1); experiment: Peptide displacement AlphaScreen; type: binding
[9] = biological target: T2, CBP; experiment: Isothermal titration calorimetry (ITC); settings: for ITC 9T∆S, CBP: At T = 298.15 K
[10] = biological target: T1, BRD4(1); experiment: Isothermal titration calorimetry (ITC); settings: for ITC 9T∆S, BRD4(1): At T = 298.15 K; for Selectivity for CBP over BRD4(1): from ITC Kd values
[11] = mean ± SEM (number of measurements), read-out: CBP AlphaScreen pIC50 (converted)

T2 sequence (Q92793 1085-1192 limits assumed): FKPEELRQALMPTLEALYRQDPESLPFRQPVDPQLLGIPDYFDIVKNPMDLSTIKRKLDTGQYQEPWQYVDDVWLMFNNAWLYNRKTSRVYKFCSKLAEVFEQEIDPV

SMILES | ΔTm at 10 µM [7] [°C] | ITC N (molar binding ratio of the ligand-protein interaction), CBP [9] | ITC ∆G, CBP [9] [kcal/mol] | ITC ∆H, CBP [9] [kcal/mol] | ITC 9T∆S, CBP [9] [kcal/mol] | Kd ([9]; ITC Ka, CBP) [µM] | ITC N (molar binding ratio of the ligand-protein interaction), BRD4(1) [10] | ITC ∆G, BRD4(1) [10] [kcal/mol] | ITC ∆H, BRD4(1) [10] [kcal/mol] | ITC 9T∆S, BRD4(1) [10] [kcal/mol] | other results
COc1ccc2c(c1)N(CCCNC(=O)c1cccc3c1N[C@H](C)C(=O)N3)CCC2 [Compound 4] |  |  |  |  |  |  |  |  |  |  | Kd [1]: 0.39 µM
Cc1noc(C)c1-c1ccc2nc[nH]c2c1 [Compound 5] |  |  |  |  |  |  |  |  |  |  | CBP pIC50 [2]: 5.4; BRD4(1) pIC50 [3]: 5.2
Cc1noc(C)c1-c1ccc2ncn(Cc3ccc(C#N)cc3)c2c1 [Compound 6] |  |  |  |  |  |  |  |  |  |  | CBP pIC50 [2]: < 4.0; BRD4(1) pIC50 [3]: 6.7; FRAP half-time of fluorescence recovery (t1/2), GFP-tagged 3× CBP BRD ([4]; SAHA-treated, compound 0.1 μM): 0.74 s
Cc1noc(C)c1-c1ccc2c(c1)ncn2Cc1ccc(Cl)cc1 [Compound 7] |  |  |  |  |  |  |  |  |  |  | CBP pIC50 [2]: 5.7
Cc1noc(C)c1-c1ccc2c(c1)nc(CC(C)(C)C)n2CCN(C)C [Compound 8] | 4.5 |  |  |  |  |  |  |  |  |  | ΔTm at 10 µM [5]: 3.2 °C; IC50 [6, 11]: 0.501 µM
Cc1noc(C)c1-c1ccc2c(c1)nc(CCc1ccccc1)n2CCN(C)C [Compound 12] | 6.3 |  |  |  |  |  |  |  |  |  | ΔTm at 10 µM [5]: 2.9 °C; IC50 [6, 11]: 0.501 µM
COC(Cn1c(CCc2ccccc2)nc2cc(-c3c(C)noc3C)ccc21)OC [Compound 13] | 0.27 |  |  |  |  |  |  |  |  |  | IC50 ([6]; read-out: AlphaScreen IC50 CBP): 460 µM
Cc1noc(C)c1-c1ccc2c(c1)nc(CCc1ccccc1)n2CCN1CCC1 [Compound 14] | 4.4 |  |  |  |  |  |  |  |  |  | ΔTm at 10 µM [5]: 2.6 °C; IC50 [8]: 22 µM; IC50 ([6]; read-out: AlphaScreen IC50 CBP): 0.57 µM
Cc1noc(C)c1-c1ccc2c(c1)nc(CCc1ccccc1)n2CCN1CCNCC1 [Compound 19] | 6.5 |  |  |  |  |  |  |  |  |  | ΔTm at 10 µM [5]: 4 °C; IC50 [8]: 7.5 µM; IC50 ([6]; read-out: AlphaScreen IC50 CBP): 0.75 µM
Cc1noc(C)c1-c1ccc2c(c1)nc(CCc1ccccc1)n2CCN1CCSCC1 [Compound 20] | 6.6 |  |  |  |  |  |  |  |  |  | ΔTm at 10 µM [5]: 3.9 °C; IC50 [8]: 9.5 µM; IC50 ([6]; read-out: AlphaScreen IC50 CBP): 0.44 µM
Cc1ccc(CCc2nc3cc(-c4c(C)noc4C)ccc3n2CCN2CCOCC2)cc1 [Compound 25] | 7.4 | 1.02 ± 0.00208 | -9.63 | -9.70 ± 0.0399 | 0.0674 | 0.0495 | 0.987 ± 0.0033 | -8.24 | -8.74 ± 0.0402 | 0.501 | Kd ([10]; ITC Ka, BRD4(1)): 0.546 µM
COc1ccc(CCc2nc3cc(-c4c(C)noc4C)ccc3n2CCN2CCOCC2)cc1 [Compound 26] | 8.1 |  |  |  |  |  |  |  |  |  | 
Cc1noc(C)c1-c1ccc2c(c1)nc(CCc1cccc(F)c1)n2CCN1CCOCC1 [Compound 30] | 7.1 |  |  |  |  |  |  |  |  |  | 
Cc1noc(C)c1-c1ccc2c(c1)nc(CCc1ccc(F)cc1)n2CCN1CCOCC1 [Compound 31] |  | 0.887 ± 0.00152 | -9.98 | -9.63 ± 0.0319 | -0.346 | 0.0277 | 0.674 ± 0.00495 | -8.35 | -8.02 ± 0.0815 | -0.331 | Kd ([10]; ITC Ka, BRD4(1)): 0.478 µM
COc1ccc(CCc2nc3cc(-c4c(C)noc4C)ccc3n2CCN2CCOCC2)cc1Cl [Compound 32] | 9 | 1.18 ± 0.00143 | -10.1 | -10.8 ± 0.0290 | 0.760 | 0.0223 | 0.604 ± 0.00325 | -8.32 | -9.99 ± 0.0746 | 1.670 | ITC Ka, BRD4(1) [10]: 2.26 ± 0.121 106 M91; Selectivity for CBP over BRD4(1) [10]: 17-fold
O=C(CCCCCCC(=O)Nc1ccccc1)NO [SAHA, reference compound] |  |  |  |  |  |  |  |  |  |  | FRAP half-time of fluorescence recovery (t1/2), GFP-tagged 3× CBP BRD ([4]; DMSO + SAHA, no BRD inhibitor): 0.79 s

Now from value to compound, other results behind:

ΔTm at 10 µM [7] [°C] | ITC N (molar binding ratio of the ligand-protein interaction), CBP [9] | ITC ∆G, CBP [9] [kcal/mol] | ITC ∆H, CBP [9] [kcal/mol] | ITC 9T∆S, CBP [9] [kcal/mol] | Kd ([9]; ITC Ka, CBP) [µM] | ITC N (molar binding ratio of the ligand-protein interaction), BRD4(1) [10] | ITC ∆G, BRD4(1) [10] [kcal/mol] | ITC ∆H, BRD4(1) [10] [kcal/mol] | ITC 9T∆S, BRD4(1) [10] [kcal/mol] | SMILES | other results
9.6 |  |  |  |  |  |  |  |  |  | COc1ccc(CCc2nc3cc(-c4c(C)noc4C)ccc3n2CCN2CCOCC2)cc1F [Compound 33] | Kd ([10]; ITC Kd BRD4(1), 15 °C): 0.44 ± 0.025 µM; Selectivity for CBP over BRD4(1) [10]: 20-fold
 | 0.703 ± 0.00135 | -9.94 | -9.30 ± 0.0342 | -0.638 | 0.0302 | 0.645 ± 0.00594 | -8.10 | -9.34 ± 0.118 | 1.240 | Cc1noc(C)c1-c1ccc2c(c1)nc(CCc1nc3ccccc3s1)n2CCN1CCOCC1 [Compound 35] | Kd ([10]; ITC Ka, BRD4(1)): 0.662 µM
8.9 |  |  |  |  |  |  |  |  |  | Cc1noc(C)c1-c1ccc2c(c1)nc(CCn1ccc3ccccc31)n2CCN1CCOCC1 [Compound 36] | Kd ([9]; ITC Kd CBP, 15 °C): 0.03 ± 0.0021 µM; Kd ([10]; ITC Kd BRD4(1), 15 °C): 0.66 ± 0.055 µM; Selectivity for CBP over BRD4(1) [10]: 22-fold
2 |  |  |  |  |  |  |  |  |  | COc1ccc(CCc2cc3cc(-c4c(C)noc4C)ccc3n2CCN2CCOCC2)cc1Cl [Compound 40] | ΔTm at 10 µM [5]: < 1 °C
 | 0.983 ± 0.00535 | -8.50 | -14.0 ± 0.0994 | 5.72 | 0.368 | 1.04 ± 0.0101 | -7.78 | -8.50 ± 0.108 | 0.725 | Cc1noc(C)c1-c1ccc(NC[C@H](C)N2CCOCC2)c([N+](=O)[O-])c1 [Compound 57] | Kd ([10]; ITC Ka, BRD4(1)): 1.21 µM
 | 0.88 ± 0.00202 | -10.0 | -9.59 ± 0.0406 | -0.420 | 0.0262 | 0.84 ± 0.0113 | -8.30 | -7.46 ± 0.127 | -0.844 | Cc1noc(C)c1-c1ccc2c(c1)nc(CCn1ccc3ccccc31)n2C[C@@H](C)N1CCOCC1 [Compound 60] | Kd ([10]; ITC Ka, BRD4(1)): 0.532 µM
~10 | 1.01 ± 0.00517 | -8.58 | -12.5 ± 0.0855 | 3.94 | 0.239 | 0.862 ± 0.00663 | -8.09 | -9.21 ± 0.0912 | 1.12 | Cc1noc(C)c1-c1ccc2c(c1)nc(CCn1ccc3ccccc31)n2C[C@H](C)N1CCOCC1 [Compound 61] | Kd ([9]; ITC Kd CBP, 15 °C): 0.026 ± 0.0026 µM; IC50 [6, 11]: < 0.1 µM; Kd ([10]; ITC Ka, BRD4(1)): 0.685 µM; Kd ([10]; ITC Kd BRD4(1), 15 °C): 0.53 ± 0.074 µM; Selectivity for CBP over BRD4(1) [10]: 20-fold
 | 1.08 ± 0.0029 | -9.71 | -11.1 ± 0.0496 | 1.37 | 0.0394 | 0.859 ± 0.00961 | -8.17 | -9.15 ± 0.128 | 0.978 | COc1ccc(CCc2nc3cc(-c4c(C)noc4C)ccc3n2C[C@@H](C)N2CCOCC2)cc1F [Compound 62] | Kd ([10]; ITC Ka, BRD4(1)): 0.606 µM
~10 |  |  |  |  |  |  |  |  |  | COc1ccc(CCc2nc3cc(-c4c(C)noc4C)ccc3n2C[C@H](C)N2CCOCC2)cc1F [Compound 63] | Kd ([9]; ITC Kd CBP, 15 °C): 0.039 ± 0.0029 µM; IC50 [6, 11]: < 0.1 µM; Kd ([10]; ITC Kd BRD4(1), 15 °C): 0.61 ± 0.054 µM; Selectivity for CBP over BRD4(1) [10]: 16-fold
